The record followed here is patent publication US9050266B2, “Phenol derivatives and pharmaceutical or cosmetic use thereof” (GALDERMA RESEARCH & DEVELOPMENT, priority 2009, dated 2015).

For series [1], the target named is T1, receptors of AR type (androgen receptor) (Homo sapiens, UniProt P10275).
T1 construct: expressed in transfected cells; host or cells: PALM cell line (PC3 stably transfected with PMMTV-neo-Luc and pSG5puro-AR)
T1 sequence (P10275 1-920): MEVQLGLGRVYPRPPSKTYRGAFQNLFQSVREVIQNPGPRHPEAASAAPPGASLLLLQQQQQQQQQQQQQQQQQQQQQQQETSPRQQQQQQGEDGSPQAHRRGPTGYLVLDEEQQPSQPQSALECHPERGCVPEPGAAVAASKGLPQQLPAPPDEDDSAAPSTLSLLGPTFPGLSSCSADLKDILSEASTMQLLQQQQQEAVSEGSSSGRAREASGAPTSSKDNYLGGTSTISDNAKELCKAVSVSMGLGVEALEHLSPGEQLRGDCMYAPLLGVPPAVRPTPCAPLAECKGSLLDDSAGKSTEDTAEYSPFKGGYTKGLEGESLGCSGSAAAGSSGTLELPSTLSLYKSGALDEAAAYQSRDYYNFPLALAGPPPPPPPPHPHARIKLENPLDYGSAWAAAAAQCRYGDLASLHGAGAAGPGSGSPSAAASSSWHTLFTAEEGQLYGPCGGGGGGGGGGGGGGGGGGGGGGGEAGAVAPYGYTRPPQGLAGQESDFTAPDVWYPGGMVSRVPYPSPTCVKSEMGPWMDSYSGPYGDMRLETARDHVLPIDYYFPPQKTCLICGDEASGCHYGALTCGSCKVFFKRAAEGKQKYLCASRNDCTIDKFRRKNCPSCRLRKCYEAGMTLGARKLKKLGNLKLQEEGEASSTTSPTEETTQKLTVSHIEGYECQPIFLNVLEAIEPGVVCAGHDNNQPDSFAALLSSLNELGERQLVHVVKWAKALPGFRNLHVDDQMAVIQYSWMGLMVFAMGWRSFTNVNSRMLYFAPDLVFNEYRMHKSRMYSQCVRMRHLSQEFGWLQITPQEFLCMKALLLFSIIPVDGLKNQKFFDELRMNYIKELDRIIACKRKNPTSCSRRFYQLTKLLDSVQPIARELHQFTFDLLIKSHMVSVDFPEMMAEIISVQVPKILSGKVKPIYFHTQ
Kind of series: AR transactivation test in the PALM (PC3 Androgen receptor Luciferse MMTV) cell line, cross curves against methyltrienolone. Type of series: cell-based. Particulars: cross curves vs reference agonist methyltrienolone, read-out: Kdapp (apparent dissociation constant). As to the method:
The compounds according to the invention show inhibitory properties on receptors of AR type. This AR receptor-inhibiting activity is measured in a transactivation test through the KdR (resting), KdA (active) and Kdapp (apparent) dissociation constants according to the method set out in J. Molecular Biology (1965), 12(1), 88-118, Monod J. et al.
The expression “AR-type receptor inhibitor” means, according to the invention, any compound which has a Kdapp dissociation constant of less than or equal to 1 μM, and a KdR/KdA ratio ≦10, in a transactivation test.
The transactivation test is carried out in the PALM (PC3 Androgen receptor Luciferse MMTV) cell line which is a stable transfectant containing the PMMTV-neo-Luc (reporter gene) and pSG5puro-AR plasmids.
In this study, the affinity of each product for the 2 receptor states (KdR and KdA) is determined, as is an apparent Kd (KdApp). This constant is a result of the 2 Kd, but also depends on the initial equilibrium of the receptor between the active state and the resting state (L0) and on its expression level. It is determined by means of the following formula: 1/KdApp=(L0/(1+L0))×(1/KdR)+(1/(1+L0))×(1/KdA)
To determine these constants, “cross curves” of the test product against a reference agonist, methyltrienolone, are produced in 96-well plates. The test product is used at 10 concentrations and the reference agonist at 7 concentrations.

For `COc1cccc(NCc2ccccc2O)n1` [Example 1, 2-[(6-Methoxypyridin-2-ylamino)methyl]phenol], the melting point – broadly, the temperature, or range, at which the solid turns liquid – was 103 °C. In addition, in series [1], the Kd was found to be 40 nM.
`Oc1ccccc1CNc1cccc(Br)n1` [Example 2, 2-[(6-bromo-pyridin-2-ylamino)-methyl]-phenol]: the Kd in series [1] amounted to 2 nM.
On the same count and under the same terms, next, `N#Cc1cccc(NCc2ccccc2O)n1` [Example 4, 6-(2-hydroxy-benzyl-amino)-pyridine-2-carbonitrile]: 200 nM.
In the case of `Oc1ccccc1CNc1cncc(Br)n1` [Example 13, 2-[(6-Bromopyrazin-2-ylamino)methyl]phenol], the melting point worked out at 168 °C.
Turning to `Cc1cc(Cl)nc(NCc2ccccc2O)c1` [Example 18, 2-[(6-chloro-4-methyl-pyridin-2-ylamino)-methyl]-phenol], the Kd in series [1] came out at 1000 nM.
Turning to `COc1cncc(NCc2ccccc2O)n1` [Example 19, 2-[(6-Methoxypyrazin-2-ylamino)methyl]phenol], the melting point turned out to be 158 °C. In addition, the Kd in series [1] was 8 nM.
`COc1nccc(NCc2ccccc2O)n1` [Example 20, 2-[(2-Methoxypyrimidin-4-ylamino)methyl]phenol] displayed a melting point of 161 °C.
The same measure, in the same setting: the same measure for `CSc1cccc(NCc2ccccc2O)n1` [Example 22, 2-[(6-Methylsulphanylpyridin-2-ylamino)methyl]phenol]: 61 °C.
The same measure, in the same setting: the same measure for `C[S+]([O-])c1cccc(NCc2ccccc2O)n1` (centres unmarked) [Example 23, 2-[(6-Methanesulphinylpyridin-2-ylamino)methyl]phenol]: 133 °C.
